Where “and” joins values, the source holds several entries; their conditions need not be identical. Equal values may be shown once. Toxic doses and inconclusive results are not listed. The calls were made as follows: active = survival T/C of 150% or more; inactive = T/C below 125% in these data.
Test system: CD2F1 mice, L1210 leukemia ip, survival T/C
Test: NCI In Vivo Anticancer Drug Screen. Data for tumor model L1210 Leukemia (intraperitoneal) in CD2F1 (CDF1) mice
Conditions: higher = longer survival
Outline: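 Implant tumor; dose compound or vehicle; measure endpoint in both groups; report treated divided by control.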

[1] = endpoint: mean survival time, dose: 12.5 mg/kg/injection, schedule: Q01DX005 (ip), vehicle: water
[2] = endpoint: mean survival time, dose: 25.0 mg/kg/injection, schedule: Q01DX005 (ip), vehicle: water
[3] = endpoint: mean survival time, dose: 50.0 mg/kg/injection, schedule: Q01DX005 (ip), vehicle: water
[4] = endpoint: mean survival time, dose: 100.0 mg/kg/injection, schedule: Q01DX005 (ip), vehicle: water
[5] = endpoint: mean survival time, dose: 12.5 mg/kg/injection, schedule: Q01DX009 (ip), vehicle: water
[6] = endpoint: mean survival time, dose: 100.0 mg/kg/injection, schedule: Q04DX003 (ip), vehicle: saline with Tween-80
[7] = endpoint: mean survival time, dose: 200.0 mg/kg/injection, schedule: Q04DX003 (ip), vehicle: saline with Tween-80
[8] = endpoint: mean survival time, dose: 400.0 mg/kg/injection, schedule: Q04DX003 (ip), vehicle: saline with Tween-80
[9] = endpoint: mean survival time, dose: 100.0 mg/kg/injection, schedule: Q01DX009 (ip), vehicle: saline with Tween-80
[10] = endpoint: mean survival time, dose: 200.0 mg/kg/injection, schedule: Q01DX009 (ip), vehicle: saline with Tween-80
[11] = endpoint: mean survival time, dose: 400.0 mg/kg/injection, schedule: Q01DX009 (ip), vehicle: saline with Tween-80
[12] = endpoint: mean survival time, dose: 75.0 mg/kg/injection, schedule: Q01DX001 (ip), vehicle: saline
[13] = endpoint: mean survival time, dose: 100.0 mg/kg/injection, schedule: Q04DX002 (ip), vehicle: saline with Tween-80
[14] = endpoint: mean survival time, dose: 200.0 mg/kg/injection, schedule: Q04DX002 (ip), vehicle: saline with Tween-80

Measured: T/C

CCC[CH2][Sn]1([CH2]CCC)[O]C2C(CO)OC(n3ccc(=O)[nH]c3=O)C2[O]1 (stereo not drawn)
inactive: endpoint: mean survival time, dose: 1.56 mg/kg/injection, schedule: Q01DX005 (ip), vehicle: other 98 % of control | endpoint: mean survival time, dose: 3.13 mg/kg/injection, schedule: Q01DX005 (ip), vehicle: other 102 % of control | endpoint: mean survival time, dose: 6.25 mg/kg/injection, schedule: Q01DX005 (ip), vehicle: other 112 % of control | endpoint: mean survival time, dose: 12.5 mg/kg/injection, schedule: Q01DX005 (ip), vehicle: other 100 % of control

Nc1nc(=O)n(C2OC(CO)C(O)C2O)c2nc[nH]c12 (stereo not drawn)
inactive: endpoint: mean survival time, dose: 6.25 mg/kg/injection, schedule: Q01DX005 (ip), vehicle: water 98 % of control | [1] 90 % of control | [2] 88 % of control | [3] 92 % of control and 93 % of control | [4] 87 % of control and 90 % of control

COc1cccc2c1C(=O)c1c(O)c3c(c(O)c1C2=O)C[C@@](O)(/C(C)=N\NC(=O)CO)C[C@@H]3OC1CC(N)C(O)C(C)O1 (stereo partly drawn)
inactive: endpoint: mean survival time, dose: 0.25 mg/kg/injection, schedule: Q01DX009 (ip), vehicle: water 103 % of control | endpoint: mean survival time, dose: 0.5 mg/kg/injection, schedule: Q01DX009 (ip), vehicle: water 101 % of control | endpoint: mean survival time, dose: 0.78 mg/kg/injection, schedule: Q01DX009 (ip), vehicle: water 107 % of control | endpoint: mean survival time, dose: 1.0 mg/kg/injection, schedule: Q01DX009 (ip), vehicle: water 98 % of control | endpoint: mean survival time, dose: 1.0 mg/kg/injection, schedule: Q04DX003 (ip), vehicle: saline with Tween-80 115 % of control | endpoint: mean survival time, dose: 1.56 mg/kg/injection, schedule: Q01DX009 (ip), vehicle: water 107 % of control | endpoint: mean survival time, dose: 2.0 mg/kg/injection, schedule: Q01DX009 (ip), vehicle: water 106 % of control | endpoint: mean survival time, dose: 2.0 mg/kg/injection, schedule: Q04DX003 (ip), vehicle: saline with Tween-80 113 % of control | endpoint: mean survival time, dose: 3.13 mg/kg/injection, schedule: Q01DX009 (ip), vehicle: water 119 % of control | endpoint: mean survival time, dose: 4.0 mg/kg/injection, schedule: Q01DX009 (ip), vehicle: water 111 % of control | endpoint: mean survival time, dose: 4.0 mg/kg/injection, schedule: Q04DX003 (ip), vehicle: saline with Tween-80 117 % of control | endpoint: mean survival time, dose: 8.33 mg/kg/injection, schedule: Q04DX003 (ip), vehicle: saline 121 % of control | endpoint: mean survival time, dose: 12.5 mg/kg/injection, schedule: Q01DX009 (ip), vehicle: saline 101 % of control | [5] 115 % of control

N#[N+]c1cn(C2CC(O)C(CO)O2)c(=O)[nH]c1=O (stereo not drawn)
inactive: [6] 101 % of control | [7] 98 % of control | [8] 118 % of control

CC(=O)Oc1cc(C(C)(C)C)c(OC(C)=O)c(N=[N+]=[N-])c1C(C)(C)C
inactive: [6] 96 % of control | [7] 101 % of control | [8] 96 % of control

CCC1(CC)CCC(Br)C(Br)C1 (stereo not drawn)
inactive: [9] 94 % of control | [6] 95 % of control | [10] 94 % of control | [7] 98 % of control | [11] 89 % of control | [8] 93 % of control

CCCCNc1ncnc2c1cnn2C
inactive: endpoint: mean survival time, dose: 4.0 mg/kg/injection, schedule: Q01DX Z (ip), vehicle: saline 97 % of control | endpoint: mean survival time, dose: 8.0 mg/kg/injection, schedule: Q01DX Z (ip), vehicle: saline 96 % of control | endpoint: mean survival time, dose: 12.5 mg/kg/injection, schedule: Q01DX005 (ip), vehicle: saline with Tween-80 94 % of control | endpoint: mean survival time, dose: 16.0 mg/kg/injection, schedule: Q01DX Z (ip), vehicle: saline 100 % of control | endpoint: mean survival time, dose: 25.0 mg/kg/injection, schedule: Q01DX005 (ip), vehicle: saline with Tween-80 100 % of control | endpoint: mean survival time, dose: 31.0 mg/kg/injection, schedule: Q01DX Z (ip), vehicle: saline 103 % of control | endpoint: mean survival time, dose: 50.0 mg/kg/injection, schedule: Q01DX005 (ip), vehicle: saline with Tween-80 104 % of control | endpoint: mean survival time, dose: 100.0 mg/kg/injection, schedule: Q01DX005 (ip), vehicle: saline with Tween-80 98 % of control | endpoint: mean survival time, dose: 200.0 mg/kg/injection, schedule: Q01DX005 (ip), vehicle: saline with Tween-80 100 % of control | endpoint: median survival time, dose: 31.3 mg/kg/injection, schedule: Q01DX009 (ip), vehicle: saline 100 % of control | endpoint: median survival time, dose: 62.5 mg/kg/injection, schedule: Q01DX009 (ip), vehicle: saline 100 % of control | endpoint: median survival time, dose: 125.0 mg/kg/injection, schedule: Q01DX009 (ip), vehicle: saline 105 % of control

COC(=O)C(C)C1(O)CCCCC1 (stereo not drawn)
inactive: [6] 97 % of control | [7] 95 % of control | [8] 98 % of control

CC12CCC(C(CO)C1=O)C2(C)C (stereo not drawn)
inactive: [12] 98 % of control | endpoint: mean survival time, dose: 150.0 mg/kg/injection, schedule: Q01DX001 (ip), vehicle: saline 98 % of control | endpoint: mean survival time, dose: 300.0 mg/kg/injection, schedule: Q01DX001 (ip), vehicle: saline 98 % of control

C[n+]1c(-c2cc(Cl)cc(Cl)c2)c2cc(N)ccc2c2ccccc21
inactive: endpoint: mean survival time, dose: 6.25 mg/kg/injection, schedule: Q01DX009 (ip), vehicle: water 108 % of control | [5] 108 % of control | endpoint: mean survival time, dose: 25.0 mg/kg/injection, schedule: Q01DX009 (ip), vehicle: water 104 % of control

C#CC[N+](C)(C)CCNC(=O)CCCCCCCCCCCCCCC
inactive: [12] 102 % of control

Cc1cc(C)c(O)c(C)c1
inactive: endpoint: mean survival time, dose: 50.0 mg/kg/injection, schedule: Q01DX009 (ip), vehicle: Klucel (hydroxypropylcellulose) (HPC) 96 % of control | endpoint: mean survival time, dose: 100.0 mg/kg/injection, schedule: Q01DX009 (ip), vehicle: Klucel (hydroxypropylcellulose) (HPC) 93 % of control | endpoint: mean survival time, dose: 200.0 mg/kg/injection, schedule: Q01DX009 (ip), vehicle: Klucel (hydroxypropylcellulose) (HPC) 93 % of control

O=C1OC(=O)C2CCCC3CCCC1C32 (stereo not drawn)
inactive: [13] 108 % of control | [14] 108 % of control

[Cl][Pt][Cl].[NH-]NC(=O)c1ccncc1
inactive: endpoint: mean survival time, dose: 12.5 mg/kg/injection, schedule: Q04DX003 (ip), vehicle: saline with Tween-80 95 % of control | endpoint: mean survival time, dose: 25.0 mg/kg/injection, schedule: Q04DX003 (ip), vehicle: saline with Tween-80 94 % of control | endpoint: mean survival time, dose: 50.0 mg/kg/injection, schedule: Q04DX003 (ip), vehicle: saline with Tween-80 91 % of control | [6] 94 % of control | [7] 88 % of control

OCn1c2ccccc2c2ccccc21
inactive: [6] 89 % of control | [7] 87 % of control | [8] 87 % of control

O=C(Nc1cccc(O)c1)c1ccc([N+](=O)[O-])cc1
inactive: endpoint: mean survival time, dose: 100.0 mg/kg/injection, schedule: Q04DX003 (ip), vehicle: Klucel (hydroxypropylcellulose) (HPC) 97 % of control | endpoint: mean survival time, dose: 200.0 mg/kg/injection, schedule: Q04DX003 (ip), vehicle: Klucel (hydroxypropylcellulose) (HPC) 107 % of control | endpoint: mean survival time, dose: 400.0 mg/kg/injection, schedule: Q04DX003 (ip), vehicle: Klucel (hydroxypropylcellulose) (HPC) 108 % of control

Nc1nc2c(ncn2-c2cccc(NC(=O)Nc3ccc(S(=O)(=O)F)cc3)c2)c(=O)[nH]1 (tested in a mixture with another compound)
inactive: [13] 94 % of control | [14] 105 % of control | endpoint: mean survival time, dose: 400.0 mg/kg/injection, schedule: Q04DX002 (ip), vehicle: saline with Tween-80 86 % of control

CS(=O)CCO (stereo not drawn)
inactive: endpoint: mean survival time, dose: 100.0 mg/kg/injection, schedule: Q04DX002 (ip), vehicle: saline 93 % of control | endpoint: mean survival time, dose: 200.0 mg/kg/injection, schedule: Q04DX002 (ip), vehicle: saline 107 % of control | endpoint: mean survival time, dose: 400.0 mg/kg/injection, schedule: Q04DX002 (ip), vehicle: saline 104 % of control

O=C(O)C1C2CC(O)C(C2)C1C(=O)O (stereo not drawn)
inactive: endpoint: mean survival time, dose: 100.0 mg/kg/injection, schedule: Q01DX009 (ip), vehicle: saline 97 % of control | endpoint: mean survival time, dose: 100.0 mg/kg/injection, schedule: Q04DX003 (ip), vehicle: saline 94 % of control | endpoint: mean survival time, dose: 200.0 mg/kg/injection, schedule: Q01DX009 (ip), vehicle: saline 100 % of control | endpoint: mean survival time, dose: 200.0 mg/kg/injection, schedule: Q04DX003 (ip), vehicle: saline 94 % of control | endpoint: mean survival time, dose: 400.0 mg/kg/injection, schedule: Q01DX009 (ip), vehicle: saline 97 % of control | endpoint: mean survival time, dose: 400.0 mg/kg/injection, schedule: Q04DX003 (ip), vehicle: saline 95 % of control

NCCS/C=C(\Br)C(=O)OCc1ccc(Br)cc1
inactive: [6] 96 % of control | [7] 98 % of control

NP(=O)(OCCCOCc1ccccc1)N(CCCl)CCCl (stereo not drawn)
inactive: [1] 95 % of control | [2] 94 % of control | [3] 100 % of control | [4] 100 % of control | endpoint: mean survival time, dose: 200.0 mg/kg/injection, schedule: Q01DX005 (ip), vehicle: water 101 % of control

COC(=O)c1cc(I)ccc1O
inactive: [9] 107 % of control | [6] 103 % of control | [10] 109 % of control | [7] 100 % of control | [11] 103 % of control | [8] 100 % of control
